The values that follow come from patent US20260083789A1, “FORMULATION FOR STIMULATING HAIR GROWTH AND IMPROVING QUALITY AND METHOD OF PREPARATION OF THE SAME” (ARJUNA NATURAL PRIVATE LIMITED, priority 2022, published 2026).

In test [1] the test system is Human dermal fibroblasts (HDFa) cells. Briefly: MTT assay, cell viability / proliferation. Type of test: cell-based. Conditions: HDFs. How it is done: Human dermal fibroblasts (HDFa) cells were maintained in DMEM high glucose media (Himedia) with 10% FBS and 40 units/ml of penicillin & 40 μg/mL of streptomycin (Thermo Fisher) in 37° C. humidified chamber with 5% CO2. Cells were passaged after every 2-3 days using trypsin-EDTA.
Cells were trypsinized, centrifuged and resuspended in culture medium. Cells and then counted by trypan blue method using haemocytometer and plated at 5000 cells per 50 μl into wells of a 96 well microtiter plate. The cells were then incubated overnight under conditions appropriate for the cell line for adherence. […] 10 μl MTT reagent was then added to each well, after respective time period followed by incubation for 4 hours. After 4 hours, when the purple precipitate was clearly visible under the microscope, supernatant was removed carefully by pipette and 100 μl of solubilization solution (DMSO) was added to all wells. The plate was shaken softly for 20 minutes in the dark at room temperature. Then, the absorbance was taken of each well, including the blanks, at 570 nm with reference wavelength at 630 nm in a microtiter plate reader. The average values were determined from triplicate readings and subtracted the average value for the blank.

For the next test, the system named is HDFs. The test can be described thus: In vitro cell based scratch assay (wound healing). Also on record: species or system human. Particulars: negative control 89.798 %. The protocol:
In vitro cell based scratch assay is one of the most apt and economic procedures for preliminary examination of wound healing potential of any medicinal extract. […] Cell migration was monitored at 0 hour, 24 hours and 48 hours and wound closure distance was calculated by Image J software.

On to `Nc1cc(N2CCCCC2)nc(N)[n+]1[O-]` [Minoxidil, 2,4-diamino-6 piperidino-pyrimidine-3-oxide], for which, in test [1], the “time at which cell proliferation peaked” value was 72 h and the “time to show efficacy / increase the rate of cell proliferation” value amounted to 48 h. Also, in test [1] (in contrast to the extract), the “cell proliferation in relation to concentration” value is reported as “increased cell proliferation at lower concentrations”. For the same compound, the “closure of the gap created by the scratch” value in the test on HDFs stood at 89.358%.
